Measurements reported in patent publication US20130216666A1, “CASHEW NUT SHELL LIQUID WITH IMPROVED STABILITY” (IDEMITSU KOSAN CO., LTD., priority 2010, published 2013).
Where two headings read alike, the source gives them in different places.

What was measured:
[1] = 80° C.; for inhibition of the decarboxylation: a day
Procedure: The EDTA was prepared as a 10% aqueous solution for the addition.
Samples were taken from the beakers after a day and analyzed for composition by HPLC.

[2] = 80° C.
Procedure: The glycine was prepared as a 10% aqueous solution for the addition.
Samples were taken from the beakers after 6 days and analyzed for composition by HPLC.

[3] = Inhibition of decarboxylation reaction when organic acid chelating agent was added (HPLC); format: physicochemical; details: 80° C.
[4] = 1% by weight in unheated CNSL, Day 0
[5] = 1% by weight in unheated CNSL, Day 1
[6] = 5% by weight in unheated CNSL, Day 0
[7] = 5% by weight in unheated CNSL, Day 1
[8] = 1% by weight in unheated CNSL, Day 6
[9] = 10% by weight in unheated CNSL, Day 0
[10] = 10% by weight in unheated CNSL, Day 6
[11] = 2% by weight in unheated CNSL, Day 0
[12] = 2% by weight in unheated CNSL, Day 6

Structure (SMILES): O=C(O)CN(CCN(CC(=O)O)CC(=O)O)CC(=O)O [EDTA, ethylenediamine tetraacetic acid]
- Anacardic Acid 15:1 Composition (%) [1, 4]: 35.11%
- Anacardic Acid 15:1 concentration [1, 4]: 107.38 ppm
- Anacardic Acid 15:2 Composition (%) [1, 4]: 14.05%
- Anacardic Acid 15:2 concentration [1, 4]: 42.98 ppm
- Anacardic Acid 15:3 Composition (%) [1, 4]: 33.26%
- Anacardic Acid 15:3 concentration [1, 4]: 101.71 ppm
- Cardanol 15:1 Composition (%) [1, 4]: 7.60%
- Cardanol 15:1 concentration [1, 4]: 23.26 ppm
- Cardanol 15:2 Composition (%) [1, 4]: 3.09%
- Cardanol 15:2 concentration [1, 4]: 9.45 ppm
- Cardanol 15:3 Composition (%) [1, 4]: 6.88%
- Cardanol 15:3 concentration [1, 4]: 21.05 ppm
- Anacardic Acid 15:1 Composition (%) [1, 5]: 27.63%
- Anacardic Acid 15:1 concentration [1, 5]: 61.63 ppm
- Anacardic Acid 15:2 Composition (%) [1, 5]: 11.56%
- Anacardic Acid 15:2 concentration [1, 5]: 25.79 ppm
- Anacardic Acid 15:3 Composition (%) [1, 5]: 26.75%
- Anacardic Acid 15:3 concentration [1, 5]: 59.67 ppm
- Cardanol 15:1 Composition (%) [1, 5]: 15.11%
- Cardanol 15:1 concentration [1, 5]: 33.70 ppm
- Cardanol 15:2 Composition (%) [1, 5]: 5.60%
- Cardanol 15:2 concentration [1, 5]: 12.49 ppm
- Cardanol 15:3 Composition (%) [1, 5]: 13.34%
- Cardanol 15:3 concentration [1, 5]: 29.75 ppm
- inhibition of the decarboxylation ([1]; 1% by weight): moderate inhibition
- Anacardic Acid 15:1 Composition (%) [1, 6]: 35.11%
- Anacardic Acid 15:1 concentration [1, 6]: 107.38 ppm
- Anacardic Acid 15:2 Composition (%) [1, 6]: 14.05%
- Anacardic Acid 15:2 concentration [1, 6]: 42.98 ppm
- Anacardic Acid 15:3 Composition (%) [1, 6]: 33.26%
- Anacardic Acid 15:3 concentration [1, 6]: 101.71 ppm
- Cardanol 15:1 Composition (%) [1, 6]: 7.60%
- Cardanol 15:1 concentration [1, 6]: 23.26 ppm
- Cardanol 15:2 Composition (%) [1, 6]: 3.09%
- Cardanol 15:2 concentration [1, 6]: 9.45 ppm
- Cardanol 15:3 Composition (%) [1, 6]: 6.88%
- Cardanol 15:3 concentration [1, 6]: 21.05 ppm
- Anacardic Acid 15:1 Composition (%) [1, 7]: 29.16%
- Anacardic Acid 15:1 concentration [1, 7]: 101.34 ppm
- Anacardic Acid 15:2 Composition (%) [1, 7]: 11.39%
- Anacardic Acid 15:2 concentration [1, 7]: 39.59 ppm
- Anacardic Acid 15:3 Composition (%) [1, 7]: 27.51%
- Anacardic Acid 15:3 concentration [1, 7]: 95.61 ppm
- Cardanol 15:1 Composition (%) [1, 7]: 14.21%
- Cardanol 15:1 concentration [1, 7]: 49.37 ppm
- Cardanol 15:2 Composition (%) [1, 7]: 5.34%
- Cardanol 15:2 concentration [1, 7]: 18.56 ppm
- Cardanol 15:3 Composition (%) [1, 7]: 12.39%
- Cardanol 15:3 concentration [1, 7]: 43.07 ppm
- inhibition of the decarboxylation ([1]; 5% by weight): significant inhibition

Structure (SMILES): NCC(=O)O [Glycine, glycine]
- Anacardic Acid 15:1 Composition (%) [2, 4]: 40.00%
- Anacardic Acid 15:1 concentration [2, 4]: 346.59 ppm
- Anacardic Acid 15:2 Composition (%) [2, 4]: 13.66%
- Anacardic Acid 15:2 concentration [2, 4]: 118.36 ppm
- Anacardic Acid 15:3 Composition (%) [2, 4]: 32.88%
- Anacardic Acid 15:3 concentration [2, 4]: 284.89 ppm
- Cardanol 15:1 Composition (%) [2, 4]: 5.65%
- Cardanol 15:1 concentration [2, 4]: 48.94 ppm
- Cardanol 15:2 Composition (%) [2, 4]: 2.42%
- Cardanol 15:2 concentration [2, 4]: 20.93 ppm
- Cardanol 15:3 Composition (%) [2, 4]: 5.40%
- Cardanol 15:3 concentration [2, 4]: 46.76 ppm
- Anacardic Acid 15:1 Composition (%) [2, 8]: 23.47%
- Anacardic Acid 15:1 concentration [2, 8]: 78.82 ppm
- Anacardic Acid 15:2 Composition (%) [2, 8]: 8.29%
- Anacardic Acid 15:2 concentration [2, 8]: 27.85 ppm
- Anacardic Acid 15:3 Composition (%) [2, 8]: 18.80%
- Anacardic Acid 15:3 concentration [2, 8]: 63.14 ppm
- Cardanol 15:1 Composition (%) [2, 8]: 21.95%
- Cardanol 15:1 concentration [2, 8]: 73.71 ppm
- Cardanol 15:2 Composition (%) [2, 8]: 7.93%
- Cardanol 15:2 concentration [2, 8]: 26.64 ppm
- Cardanol 15:3 Composition (%) [2, 8]: 19.54%
- Cardanol 15:3 concentration [2, 8]: 65.62 ppm
- inhibition of the decarboxylation ([2]; 1 and 10% by weight, 6 days): subtle inhibition
- Anacardic Acid 15:1 Composition (%) [2, 9]: 40.00%
- Anacardic Acid 15:1 concentration [2, 9]: 346.59 ppm
- Anacardic Acid 15:2 Composition (%) [2, 9]: 13.66%
- Anacardic Acid 15:2 concentration [2, 9]: 118.36 ppm
- Anacardic Acid 15:3 Composition (%) [2, 9]: 32.88%
- Anacardic Acid 15:3 concentration [2, 9]: 284.89 ppm
- Cardanol 15:1 Composition (%) [2, 9]: 5.65%
- Cardanol 15:1 concentration [2, 9]: 48.94 ppm
- Cardanol 15:2 Composition (%) [2, 9]: 2.42%
- Cardanol 15:2 concentration [2, 9]: 20.93 ppm
- Cardanol 15:3 Composition (%) [2, 9]: 5.40%
- Cardanol 15:3 concentration [2, 9]: 46.76 ppm
- Anacardic Acid 15:1 Composition (%) [2, 10]: 28.28%
- Anacardic Acid 15:1 concentration [2, 10]: 94.58 ppm
- Anacardic Acid 15:2 Composition (%) [2, 10]: 9.99%
- Anacardic Acid 15:2 concentration [2, 10]: 33.42 ppm
- Anacardic Acid 15:3 Composition (%) [2, 10]: 22.66%
- Anacardic Acid 15:3 concentration [2, 10]: 75.77 ppm
- Cardanol 15:1 Composition (%) [2, 10]: 17.35%
- Cardanol 15:1 concentration [2, 10]: 58.02 ppm
- Cardanol 15:2 Composition (%) [2, 10]: 6.27%
- Cardanol 15:2 concentration [2, 10]: 20.97 ppm
- Cardanol 15:3 Composition (%) [2, 10]: 15.45%
- Cardanol 15:3 concentration [2, 10]: 51.65 ppm

Structure (SMILES): O=C(O)CC(O)C(=O)O (stereo not drawn) [Malic Acid, malic acid]
- Anacardic Acid 15:1 Composition (%) [3, 11]: 39.93%
- Anacardic Acid 15:1 concentration [3, 11]: 321.20 ppm
- Anacardic Acid 15:2 Composition (%) [3, 11]: 14.22%
- Anacardic Acid 15:2 concentration [3, 11]: 114.37 ppm
- Anacardic Acid 15:3 Composition (%) [3, 11]: 33.03%
- Anacardic Acid 15:3 concentration [3, 11]: 265.67 ppm
- Cardanol 15:1 Composition (%) [3, 11]: 5.30%
- Cardanol 15:1 concentration [3, 11]: 42.62 ppm
- Cardanol 15:2 Composition (%) [3, 11]: 2.27%
- Cardanol 15:2 concentration [3, 11]: 18.28 ppm
- Cardanol 15:3 Composition (%) [3, 11]: 5.26%
- Cardanol 15:3 concentration [3, 11]: 42.29 ppm
- Anacardic Acid 15:1 Composition (%) [3, 12]: 30.38%
- Anacardic Acid 15:1 concentration [3, 12]: 258.72 ppm
- Anacardic Acid 15:2 Composition (%) [3, 12]: 10.45%
- Anacardic Acid 15:2 concentration [3, 12]: 88.98 ppm
- Anacardic Acid 15:3 Composition (%) [3, 12]: 24.29%
- Anacardic Acid 15:3 concentration [3, 12]: 206.87 ppm
- Cardanol 15:1 Composition (%) [3, 12]: 15.35%
- Cardanol 15:1 concentration [3, 12]: 130.72 ppm
- Cardanol 15:2 Composition (%) [3, 12]: 5.81%
- Cardanol 15:2 concentration [3, 12]: 49.51 ppm
- Cardanol 15:3 Composition (%) [3, 12]: 13.71%
- Cardanol 15:3 concentration [3, 12]: 116.77 ppm
- Anacardic Acid 15:1 Composition (%) [3, 9]: 39.28%
- Anacardic Acid 15:1 concentration [3, 9]: 270.21 ppm
- Anacardic Acid 15:2 Composition (%) [3, 9]: 14.28%
- Anacardic Acid 15:2 concentration [3, 9]: 98.21 ppm
- Anacardic Acid 15:3 Composition (%) [3, 9]: 33.24%
- Anacardic Acid 15:3 concentration [3, 9]: 228.68 ppm
- Cardanol 15:1 Composition (%) [3, 9]: 5.47%
- Cardanol 15:1 concentration [3, 9]: 37.65 ppm
- Cardanol 15:2 Composition (%) [3, 9]: 2.39%
- Cardanol 15:2 concentration [3, 9]: 16.44 ppm
- Cardanol 15:3 Composition (%) [3, 9]: 5.33%
- Cardanol 15:3 concentration [3, 9]: 36.70 ppm
- Anacardic Acid 15:1 Composition (%) [3, 10]: 37.43%
- Anacardic Acid 15:1 concentration [3, 10]: 229.25 ppm
- Anacardic Acid 15:2 Composition (%) [3, 10]: 13.73%
- Anacardic Acid 15:2 concentration [3, 10]: 84.08 ppm
- Anacardic Acid 15:3 Composition (%) [3, 10]: 31.28%
- Anacardic Acid 15:3 concentration [3, 10]: 191.59 ppm
- Cardanol 15:1 Composition (%) [3, 10]: 7.28%
- Cardanol 15:1 concentration [3, 10]: 44.57 ppm
- Cardanol 15:2 Composition (%) [3, 10]: 3.41%
- Cardanol 15:2 concentration [3, 10]: 20.90 ppm
- Cardanol 15:3 Composition (%) [3, 10]: 6.87%
- Cardanol 15:3 concentration [3, 10]: 42.08 ppm

Structure (SMILES): O=C(O)C(O)C(O)C(=O)O (stereo not drawn) [Tartaric Acid, tartaric acid]
- Anacardic Acid 15:1 Composition (%) [3, 11]: 42.00%
- Anacardic Acid 15:1 concentration [3, 11]: 351.16 ppm
- Anacardic Acid 15:2 Composition (%) [3, 11]: 13.27%
- Anacardic Acid 15:2 concentration [3, 11]: 110.99 ppm
- Anacardic Acid 15:3 Composition (%) [3, 11]: 31.29%
- Anacardic Acid 15:3 concentration [3, 11]: 261.63 ppm
- Cardanol 15:1 Composition (%) [3, 11]: 5.69%
- Cardanol 15:1 concentration [3, 11]: 47.57 ppm
- Cardanol 15:2 Composition (%) [3, 11]: 2.50%
- Cardanol 15:2 concentration [3, 11]: 20.90 ppm
- Cardanol 15:3 Composition (%) [3, 11]: 5.25%
- Cardanol 15:3 concentration [3, 11]: 43.86 ppm
- Anacardic Acid 15:1 Composition (%) [3, 12]: 30.33%
- Anacardic Acid 15:1 concentration [3, 12]: 272.03 ppm
- Anacardic Acid 15:2 Composition (%) [3, 12]: 10.57%
- Anacardic Acid 15:2 concentration [3, 12]: 94.78 ppm
- Anacardic Acid 15:3 Composition (%) [3, 12]: 24.25%
- Anacardic Acid 15:3 concentration [3, 12]: 217.48 ppm
- Cardanol 15:1 Composition (%) [3, 12]: 15.59%
- Cardanol 15:1 concentration [3, 12]: 139.84 ppm
- Cardanol 15:2 Composition (%) [3, 12]: 5.66%
- Cardanol 15:2 concentration [3, 12]: 50.74 ppm
- Cardanol 15:3 Composition (%) [3, 12]: 13.62%
- Cardanol 15:3 concentration [3, 12]: 122.16 ppm
- Anacardic Acid 15:1 Composition (%) [3, 9]: 39.70%
- Anacardic Acid 15:1 concentration [3, 9]: 250.76 ppm
- Anacardic Acid 15:2 Composition (%) [3, 9]: 14.24%
- Anacardic Acid 15:2 concentration [3, 9]: 89.95 ppm
- Anacardic Acid 15:3 Composition (%) [3, 9]: 32.59%
- Anacardic Acid 15:3 concentration [3, 9]: 205.85 ppm
- Cardanol 15:1 Composition (%) [3, 9]: 5.45%
- Cardanol 15:1 concentration [3, 9]: 34.40 ppm
- Cardanol 15:2 Composition (%) [3, 9]: 2.70%
- Cardanol 15:2 concentration [3, 9]: 17.07 ppm
- Cardanol 15:3 Composition (%) [3, 9]: 5.31%
- Cardanol 15:3 concentration [3, 9]: 33.53 ppm
- Anacardic Acid 15:1 Composition (%) [3, 10]: 39.12%
- Anacardic Acid 15:1 concentration [3, 10]: 267.36 ppm
- Anacardic Acid 15:2 Composition (%) [3, 10]: 13.52%
- Anacardic Acid 15:2 concentration [3, 10]: 92.36 ppm
- Anacardic Acid 15:3 Composition (%) [3, 10]: 31.14%
- Anacardic Acid 15:3 concentration [3, 10]: 212.78 ppm
- Cardanol 15:1 Composition (%) [3, 10]: 6.81%
- Cardanol 15:1 concentration [3, 10]: 46.56 ppm
- Cardanol 15:2 Composition (%) [3, 10]: 3.24%
- Cardanol 15:2 concentration [3, 10]: 22.13 ppm
- Cardanol 15:3 Composition (%) [3, 10]: 6.17%
- Cardanol 15:3 concentration [3, 10]: 42.19 ppm
